We go through twelve compounds from US7998938B2, “Cancer treatment by combined inhibition of proteasome and telomerase activities” (Geron Corporation, priority 2005, dated 2011).

One data set deals with telomerase. The data set is described as follows: Inhibition of telomerase, biochemical (FlashPlate) assay. Also on record: species or system human. To be noted: NPS linkages unless NP backbone stated.
In a further data set the test system is CAG MM cell line. The data set is classed as in vivo, NOD/SCID mice. As to conditions: Group 4, intravenous 0.25 mg/kg; p<0.01. Here is the method:
The CAG MM cell line (telomere length 2.7 Kb) was transfected with a retroviral vector encoding a triple fusion gene for HSV-TK, firefly luciferase and green fluorescence protein, and whole animal bioluminescence imaging was undertaken in a disseminated NOD/SCID model with extensive spinal cord and bone marrow tumor infiltration. NOD/SCID mice were not irradiated with gamma ray before cell implantation. […] Bortezomib was administered intravenously at a dose of 0.25 mg/kg (Table 1).
The results are discussed in Section IVA above, with reference to FIGS. 4A-B.

Strand notation (5' to 3'): a small letter for the sugar, then the base; units joined by * are phosphorothioate-linked, units joined directly phosphodiester-linked; [ ] holds rarer units or linkages, { } end groups; capitals alone tell only the bases. [NPS] = N3'→P5' thiophosphoramidate internucleoside linkage; [NP] = N3'→P5' phosphoramidate internucleoside linkage; d = 2'-deoxy (DNA)

In turn, “11-mer; truncation of GRN163 sequence: NPS oligonucleotide TAGGGTTAGAC (SEQ ID NO: 15) (DNA, all [NPS], methylation of C not given here)” returned an IC50 with telomerase of 0.85 ± 0.35 nM.

For “12-mer; truncation of GRN163 sequence: NPS oligonucleotide TAGGGTTAGACA (SEQ ID NO: 14) (DNA, all [NPS], methylation of C not given here)”, half-maximal inhibition with telomerase (IC50) required 0.36 ± 0.2 nM. As to `CC(C)C[C@H](NC(=O)[C@H](Cc1ccccc1)NC(=O)c1cnccn1)B(O)O` [bortezomib], the “survival relative to PBS controls” value with CAG MM cell line is “significant increase”. The compound “Alternative targeting 11-mer: NPS oligonucleotide GTTAGGGTTAG (SEQ ID NO: 16) (DNA dG[NPS]dT[NPS]dT[NPS]dA[NPS]dG[NPS]dG[NPS]dG[NPS]dT[NPS]dT[NPS]dA[NPS]dG)” registered an IC50 in the data set with telomerase of 0.51 ± 0.13 nM. The same measure, in the same setting: under “Alternative targeting 13-mer: NPS oligonucleotide CAGTTAGGGTTAG (SEQ ID NO: 13), complementary to nucleotides 46-58 of SEQ ID NO: 1 (DNA, all [NPS], methylation of C not given here)” stands 0.049 ± 0.007 nM. Consider “Complement of GRN163 sequence: NPS oligonucleotide TTGTCTAACCCTA (SEQ ID NO: 24) (DNA, all [NPS], methylation of C not given here)”, for which, in the data set on telomerase, the IC50 was found to be 1000 ± 46 nM.

The compound “Duplex of GRN163 sequence: Duplex TAGGGTTAGACAA / ATCCCAATCTGTT (chemistry not fully specified; one strand is listed 3' to 5')” had an IC50 in the data set on telomerase of 8.9 ± 3 nM.

The compound “Mismatch of GRN163 sequence with NP backbone: TAGGTGTAAGCAA with NP backbone (DNA, all [NP], methylation of C not given here)” returned an IC50 in the data set on telomerase above 1000 nM.

With “Mismatch of GRN163 sequence: NPS oligonucleotide TAGGTGTAAGCAA (SEQ ID NO: 23) (DNA, all [NPS], methylation of C not given here)”, in the data set on telomerase, the IC50 is 80 ± 31 nM. The same measure, in the same setting: under “Mismatch of alternative targeting 11-mer: NPS oligonucleotide GTTGAGTGTAG (SEQ ID NO: 25) (DNA dG[NPS]dT[NPS]dT[NPS]dG[NPS]dA[NPS]dG[NPS]dT[NPS]dG[NPS]dT[NPS]dA[NPS]dG)” stands 177 ± 93 nM; under “Oligo-T 10-mer: Oligonucleotide TTTTTTTTTT (SEQ ID NO: 27)”, above 1000 nM.

For “Telomere repeat unit: Oligonucleotide TTAGGG (SEQ ID NO: 26)”, the IC50 in the data set on telomerase is above 1000 nM.
